Measured values taken from patent publication US20220041681A1 (MEDIMMUNE LIMITED, priority 2016, published 2022).

Assay: Stability testing of peptides in plasma
Type: in vitro ADME, mouse
Settings: mouse, 24 h, 2 μmol/L
Description: Stability testing of peptides in plasma.
Stock solutions of the peptides of about 200 μmol/L was prepared by weighing solid peptide into a Eppendorf Low Bind Tube and dissolved in DMSO. 10 μL of stock solutions were added to 990 μL of plasma in an Eppendorf Low Bind Tube, resulting in initial concentrations of the peptides in plasma of about 2 μmol/L. The frozen blank plasma from human, rat and mouse had been thawed and heated to a temperature of 37° C. before addition of the stock solution. The spiked plasma samples were gently mixed and allowed to equilibrate for about 5 minutes before start of experiment. The plasma samples were incubated for 48 hours in a GalaxyR CO2 incubator at 37° C. Sampling (30 μL) was performed at 0, 1, 2, 6.5, 17, 24 and 48 hours. The samples were stored at −70° C. until analysis.
Plasma samples were assayed as follows. The 30 μL plasma samples were protein precipitated with […] of cold ethanol in a 96-well low bind plate (Eppendorf Protein LoBind). After mixing and centrifugation, 100 μl the supernatant was transferred to a new plate and 1 μl was injected onto an analytical column.
The analysis was performed using a μLC-system (LC Exigent μLC) coupled to a medium high resolution mass spectrometer (Perkin Elmer PenTOF) with positive electrospray ionisation. The analytical column was a 5 cm, 1 mm Agilent Poroshell (custom made) C18-column with a particle size of 2.7 μm. Flow: 0.1 ml/min using a slow reversed phase gradient. Mobile phases used were acetonitrile and water containing 0.1% formic acid.
The resulting data were manually evaluated for the following degradation products: +1 product (acid) and the DPP IV-cleavage product. Products with +1 mass may arise from deamidation at amide groups of glutamine or at the C-terminus. Cleavage products arise from the action of the protease DPP IV in plasma. Both the degradation of the peptides and formation of peptide products were reported in percentage of the initial peptide concentration. Peaks were integrated and % remaining peptide was calculated: (peak area/peak area 0H)*100. […]

## CCCCCCCCCCCCCCCC(=O)N[C@@H](CCC(=O)NCCCC[C@H](NC(=O)[C@H](CC(=O)O)NC(=O)[C@H](CO)NC(=O)C(NC(=O)[C@H](Cc1ccccc1)NC(=O)C(NC(=O)CNC(=O)[C@H](CCC(N)=O)NC(=O)[C@H](CO)NC(=O)[C@@H](N)Cc1cnc[nH]1)[C@@H](C)O)[C@@H](C)O)C(=O)N[C@@H](CO)C(=O)N[C@@H](CCC(=O)O)C(=O)N[C@@H](Cc1ccc(O)cc1)C(=O)N[C@@H](CC(C)C)C(=O)N[C@@H](CC(=O)O)C(=O)N[C@@H](CO)C(=O)N[C@@H](CCC(=O)O)C(=O)N[C@@H](CCCNC(=N)N)C(=O)N[C@@H](C)C(=O)N[C@@H](CCCNC(=N)N)C(=O)N[C@@H](CC(=O)O)C(=O)N[C@@H](Cc1ccccc1)C(=O)N[C@H](C(=O)N[C@@H](C)C(=O)N[C@@H](Cc1c[nH]c2ccccc12)C(=O)N[C@@H](CC(C)C)C(=O)N[C@@H](CCC(=O)O)C(=O)N[C@@H](C)C(=O)NCC(=O)NCC(=O)O)C(C)C)C(=O)O (stereo partly shown) [Peptide G933]
  % stable peptide: 83%
